From patent publication US20250154134A1, “COMPOUND AS FAK INHIBITOR AND USE THEREOF” (WIGEN BIOMEDICINE TECHNOLOGY (SHANGHAI) CO., LTD., priority 2022, published 2025)
pIC50: −log10 of the molar value.

Experiments:
[1] = In vivo pharmacokinetic experiment in CD-1 mice; conditions: mouse, plasma, CD-1 female mice; for Vd: read-out: Vdss
Procedure: […] The mice were fasted for at least 12 h before the administration and given food 4 h after the administration, and they were given ad libitum access to water during the experiment.
On the day of the experiment, animals in the intravenous group were given the corresponding compound by single injection via the tail vein at an administration volume of 10 mL/kg; and animals in the oral group were given the corresponding compound by single intragastric injection at an administration volume of 10 mL/kg. The animals were weighed before administration, and the administration volume was calculated according to the body weight. The sample collection time points were 0.083 h, 0.167 h, 0.5 h, 1 h, 2 h, 4 h, 8 h, and 24 h. About 200 μL of whole blood was collected through the orbital venous plexus at each time point and used to prepare plasma for concentration determination by high-performance liquid chromatography-tandem mass spectrometry (LC-MS/MS). The plasma concentrations were processed using a non-compartmental model of Winnolin pharmacokinetic software, and the pharmacokinetic parameters were calculated using a linear-log trapezoidal method.

[2] = system: Human prostate cancer PC3 cells; assay: In vivo efficacy, PC3 xenograft in nude mice; set-up: species or system mouse; conditions: PC-3 model, 25 mg/kg, QD (21 days), PO
Procedure: (§1) The groups were as follows: 1) a solvent control group, 8 mice; and 2) a control compound group and a test compound group, 8 mice each. The mice in the solvent control group were intragastrically administered 0.5% CMC-Na twice a day; the mice in the compound groups were intragastrically administered 0.5% MC-Tween-80 suspension once a day. On Tuesday and Thursday each week, tumor volumes and body weight of the mice were measured, and the nude mice were sacrificed on day 21 after the administration. […] The toxicity of the compounds was evaluated according to the body weight of the mice.

PC3 cells [3] = assay: PC3 cell proliferation, 2D activity assay (Cell Titer-Lumi, 72 h); type: cell-based, human; conditions: Homo sapiens, PC-3, read-out: 2D inhibitory activity against PC3 cells IC50
PC3 cells [4] = assay: PC3 cell proliferation, 3D activity assay (3D culture, 14 days); type: cell-based, human; conditions: Homo sapiens, PC-3, 336 h, read-out: 3D inhibitory activity against PC3 cells IC50
[5] = system: Human pancreatic cancer Mia PaCa-2 cells; assay: In vivo efficacy, Mia PaCa-2 xenograft in nude mice; set-up: species or system mouse; conditions: MiaPaCa-2 model, 25 mg/kg PO QD 21 days
Procedure: as §1, with “intragastrically administered 0.50% MC-Tween-80 suspension” for “intragastrically administered 0.5% MC-Tween-80 suspension”

PC3 cells [6] = assay: Inhibition of PC3 cell low adsorption (adherent cell count, 4 h); type: cell-based; conditions: Homo sapiens, PC-3; 4 h treatment; read-out: IC50 against PC3 cell low adsorption
Procedure: PC3 cells were seeded at 8000 cells/well. 4 h after the cells were treated with a compound, the number of adherent cells was counted. The inhibition percentage and IC50 of the compound were calculated compared to the DMSO group.

FAK recombinant protein = FAK recombinant protein (Homo sapiens (Human), UniProt Q05397); assay: Inhibitory activity against FAK enzyme (HTRF, TK substrate); type: biochemical
Sequence of FAK recombinant protein (Q05397 whole entry): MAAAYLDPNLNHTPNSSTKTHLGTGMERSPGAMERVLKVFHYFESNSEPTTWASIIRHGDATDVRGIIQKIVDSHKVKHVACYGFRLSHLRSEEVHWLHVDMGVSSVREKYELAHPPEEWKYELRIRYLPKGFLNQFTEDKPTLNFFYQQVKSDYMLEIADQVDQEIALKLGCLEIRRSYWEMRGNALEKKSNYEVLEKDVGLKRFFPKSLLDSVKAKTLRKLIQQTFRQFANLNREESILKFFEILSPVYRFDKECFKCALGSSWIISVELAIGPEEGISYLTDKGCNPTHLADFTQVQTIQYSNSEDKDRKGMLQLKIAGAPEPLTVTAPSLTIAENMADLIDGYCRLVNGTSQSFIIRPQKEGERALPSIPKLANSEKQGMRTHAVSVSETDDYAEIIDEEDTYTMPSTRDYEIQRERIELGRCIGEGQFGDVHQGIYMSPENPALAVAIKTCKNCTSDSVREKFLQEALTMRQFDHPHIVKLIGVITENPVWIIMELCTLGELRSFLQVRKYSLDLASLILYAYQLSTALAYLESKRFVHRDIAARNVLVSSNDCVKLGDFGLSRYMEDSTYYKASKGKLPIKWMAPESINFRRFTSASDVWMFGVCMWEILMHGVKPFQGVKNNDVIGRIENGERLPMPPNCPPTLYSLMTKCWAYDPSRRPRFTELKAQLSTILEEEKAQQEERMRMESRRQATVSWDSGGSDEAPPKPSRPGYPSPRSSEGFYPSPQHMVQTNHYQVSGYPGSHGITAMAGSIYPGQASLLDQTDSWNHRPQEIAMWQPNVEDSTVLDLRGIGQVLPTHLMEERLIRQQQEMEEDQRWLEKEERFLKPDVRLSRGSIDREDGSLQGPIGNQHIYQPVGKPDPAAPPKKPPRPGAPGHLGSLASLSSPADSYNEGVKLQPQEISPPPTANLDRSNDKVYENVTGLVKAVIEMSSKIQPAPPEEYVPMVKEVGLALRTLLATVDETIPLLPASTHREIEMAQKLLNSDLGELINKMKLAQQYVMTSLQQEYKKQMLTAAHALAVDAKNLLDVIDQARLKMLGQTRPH
Procedure: A compound serially diluted with DMSO was mixed with a FAK recombinant protein. After the mixture was left to stand at room temperature for 10 min, a biotin-labeled TK substrate (TK) and ATP were added. […] The inhibition percentage and IC50 of the compound were calculated compared to the DMSO control group.

[7] = system: Mouse colon cancer MC38 cells; assay: In vivo efficacy, MC38 model in BALB/c mice, single drug and PD-1 combination; conditions: MC-38 model, single drug, 50 mg/kg, QD (21 days), PO
Procedure: Female BALB/c mice (aged 6 weeks, 18-22 g) were provided by Vital River Laboratory Animal Technology Co., Ltd. (China) and used one week after quarantine and acclimation. All animals were kept in a room at 23±2° C. with a relative humidity of 50±5%, artificial lighting was provided from 08:00 to 20:00 every day, and the air was exchanged 13-18 times per hour.
After being subcultured, the cells were collected when they reached the desired amount. The BALB/c mice were subcutaneously injected with 1×10^6 MC38 cells on the right side to form tumors. […] Administration was then started. Tumor volumes were measured with a caliper on day 3, day 7, day 10, day 14, day 17, and day 21 after the administration.
The toxicity of the compounds was evaluated according to the body weight and state of the mice.

[8] = system: phosphorylation at the FAK 397 site; assay: Inhibition of Y397 phosphorylation in PC3 cells (ELISA); type: cell-based; conditions: Homo sapiens, PC-3, 3 h treatment, read-out: IC50 against Y397 phosphorylation
Procedure: PC3 cells were seeded at 8000 cells/well. […] The inhibition percentage and IC50 of the compound were calculated compared to the DMSO group.

SMILES	AUC(0-t) ([1]; iv, injection (1 mg/kg)) [ng·h/mL]	clearance ([1]; iv, injection (1 mg/kg)) [mL/min/kg]	half-life ([1]; iv, injection (1 mg/kg)) [h]	Vd ([1]; iv, injection (1 mg/kg)) [L/kg]	TGI(%) [2] [%]	pIC50 (PC3 cells [3])	pIC50 (PC3 cells [4])	TGI(%) [5] [%]	pIC50 (PC3 cells [6])	pIC50 (FAK recombinant protein)	TGI(%) [7] [%]	AUC(0-t) ([1]; oral administration (10 mg/kg)) [ng·h/mL]	Cmax ([1]; oral administration (10 mg/kg)) [ng/mL]	Tmax ([1]; oral administration (10 mg/kg)) [h]	bioavailability ([1]; oral administration (10 mg/kg)) [%]	half-life ([1]; oral administration (10 mg/kg)) [h]	pIC50 [8]	further results
COc1cc(N2CC3(CCN(C)CC3)C2)ccc1Nc1ncc(C(F)(F)F)c(Oc2cccc3c2C(=O)N(C)C32CC2)n1 [Compound 79]	883	18.9	3.48	5.14	88.33	< 5.00	9.49	89.35	8.96	> 7.70	69.21	–	–	–	–	–	–	AUC(0-t) ([1]; oral administration, 5 mg/kg): 1760 ng·h/mL; Cmax ([1]; oral administration, 5 mg/kg): 201 ng/mL; Tmax ([1]; oral administration, 5 mg/kg): 4 h; bioavailability ([1]; oral administration, 5 mg/kg): 40%; half-life ([1]; oral administration, 5 mg/kg): 3.06 h
COc1cc(N2CC3(CCN(C)CC3)C2)c(F)cc1Nc1ncc(C(F)(F)F)c(Oc2cccc3c2C(=O)N(C)C32CC2)n1 [Compound 120, 4′-((2-((5-fluoro-2-methoxy-4-(7-methyl-2,7-diazaspiro[3.5]nonan-2-yl)phenyl)amino)-5-(trifluoromethyl)pyrimidin-4-yl)oxy)-2′-methylspiro[cyclopropane-1,1′-isoindolin]-3′-one]	850	19.6	4.69	6.15	90.83	< 5.70	9.34	–	8.84	> 7.70	66.33	6120	522	4	72	5.26	> 11.00	–
COc1cc(N2CC3(CCN(C)CC3)C2)ccc1Nc1ncc(Cl)c(Oc2cccc3c2C(=O)N(C)C32CC2)n1 [Compound 136, 4′-((5-chloro-2-((2-methoxy-4-(7-methyl-2,7-diazaspiro[3.5]nonan-2-yl)phenyl)amino)pyrimidin-4-yl)oxy)-2′-methylspiro[cyclopropane-1,1′-isoindolin]-3′-one]	1110	15	3.31	4.15	76.67	< 5.00	9.22	89.46	8.94	> 7.70	32.53	8910	907	2	80.2	2.2	9.66	–
COc1cc(N2CC3(CCN(C)CC3)C2)c(F)cc1Nc1ncc(Cl)c(Oc2cccc3c2C(=O)N(C)C32CC2)n1 [Compound 137, 4′-((5-chloro-2-((5-fluoro-2-methoxy-4-(7-methyl-2,7-diazaspiro[3.5]nonan-2-yl)phenyl)amino)pyrimidin-4-yl)oxy)-2′-methylspiro[cyclopropane-1,1′-isoindolin]-3′-one]	1390	12	3.67	3.71	76.39	< 5.00	8.85	87.68	8.77	> 7.70	–	12400	810	4	89.4	4.19	10.10	–
